Source: patent publication US20150216182A1, “COMPOSITIONS AND METHODS OF THE ATTRACTION AND REPULSION OF INSECTS” (Olfactor Laboratories, Inc., priority 2012, published 2015)

Key:
cpA neurons [1] = assay: extracellular single-sensillum electrophysiology: activation of cpA neuronal activity; conditions: for Class: Table 6, single compounds, increase over baseline cpA neuronal activity; for Comp B Class / Comp A Class: Table 9; for Comp B Class: component B tested individually; for Class B (activator class of the individual component): Table 15, single component alone, Mod Actv; for Comp A Class: component A tested individually
female mosquitoes [2] = conditions: single compound, female mosquitoes, two hours; for % mortality with 0.2 mg/ml: 0.2 mg/ml on filter paper; for % mortality with 2 mg/ml: 2 mg/ml on filter paper
larvae = assay: larvicidal activity assay; format: in vivo; conditions: 24 hour exposure, dead larvae / total larvae; for % Lethality at 100 ppm / pest or weed control at 100 ppm: 100 ppm compound; for % Lethality with 0.25% compound conc. / pest or weed control at 0.25 %: 0.25% compound; for pest or weed control at 0.25 %: read-out: % Lethality with 0.25% compound conc.; for pest or weed control at 100 ppm: read-out: % Lethality at 100 ppm
Description: A 6-well plate (Corning Life Sciences, Tewksbury, Mass.) is used to test a compound's larvicidal activity. […] After a 24 hour exposure, the number of dead larvae are counted and recorded.
The results are presented in Table 17 as % lethality (the number of dead larvae divided by the total number of larvae).

cpA neurons [3] = assay: extracellular single-sensillum electrophysiology: inhibition of CO2-responsive (cpA) neuronal activity; conditions: for Class: Table 10, single compounds, percent reduction in cpA activity compared to baseline; for Class (inhibitor class of the individual component): Inh = inhibitor
[4] = system: bed bugs (Cimex lectularius); assay: bed bug repellency assay; format: in vivo; conditions: for % Rep (bed bug repellency): compound or combination on filter paper harborage, ten bed bugs
Description: Compounds and combinations of compounds of the present invention were assayed for their ability to repel bed bugs (Cimex lectularius) using a bed bug repellency assay. This assay takes advantage of the bed bug's natural tendency to seek harborage. Two petri dishes were obtained and the inner areas of each were sanded down (leaving the perimeter smooth.) Talc was applied on the perimeter and on the inside walls of the petri dishes with a small paint brush to prevent bed bugs from escaping. A cut off top portion of a solo bathroom cup was placed upside down in the center of one petri dish. A large plastic secondary container was gathered and a paper towel was laid down inside the bottom. The petri dish was then placed inside and ten bed bugs were placed inside the cut off portion of the solo cup. Next, two pieces of filter paper were cut down the middle to yield 4 equally sized halves. 3 pieces were placed inside a glass dish ([…]) and the remaining piece was placed in a separate dish. All 4 pieces were folded down the middle to create a “tent” or “harborage” when laid such that the folded crease faced up. 100 microliters of isopropyl alcohol was pipetted into 3 pieces of filter paper (all housed in the first glass dish.) In a separate 4 ml vial, 90 microliters of isopropyl alcohol was combined and vortexed with 10 microliters of the compound or compound combination being tested. 100 microliters of this solution [comprising a total of 100 mg of compound(s)] was pipetted onto the filter paper in the separate dish. All filter papers were then allowed to dry. Once dry, experiments were conducted first with two filter paper halves comprising only the isopropyl alcohol (control experiment) and then with the remaining filter paper halves [one with only isopropyl alcohol and one comprising the test compound(s).] Filter paper halves were placed on opposing sides of experimental petri dishes and bed bugs were allowed to move freely within the dishes for 5 minutes. Movement of bed bugs beneath each filter paper tent was recorded. […] In the Table, “Rep” refers to repellency and “Cmpd” refers to compound.

female mosquitoes [5] = assay: whole plant or invertebrate; conditions: 2 h; for mortality at 200 µg/mL: read-out: % mortality with 0.2 mg/ml; for mortality at 2000 µg/mL: read-out: % mortality with 2 mg/ml
[6] = Table 13, single component alone
[7] = Table 16, single component alone

Compound | % mortality with 0.2 mg/ml (female mosquitoes [2]) | % mortality with 2 mg/ml (female mosquitoes [2]) | % Lethality with 0.25% compound conc. (larvae) | % Lethality at 100 ppm (larvae) | Class (cpA neurons [3]) | % Rep (bed bug repellency) [4] | mortality at 200 µg/mL (female mosquitoes [5]) | mortality at 2000 µg/mL (female mosquitoes [5]) | pest or weed control at 0.25 % (larvae) | pest or weed control at 100 ppm (larvae) | other results
2-ethyl-5(6)-methylpyrazine [OLI0032] | 0% | 0% | – | – | – | – | – | – | – | – | Class (cpA neurons [1]): Mild Activator (mild activators yield an increase in neuronal activity that is between 20 and 40 spk/sec over baseline neuronal activity)
2-methoxy-3(5or6)isopropylpyrazine [OLI0072] | – | – | 100% lethal | 0% lethal | Moderate Inhibitor (moderate inhibitors (reducing activity by 40-60%)) | 100% | – | – | – | – | Class (inhibitor class of the individual component) (cpA neurons [3]; [6]): Mod; Class (inhibitor class of the individual component) (cpA neurons [3]; [7]): Mod; inhibitor class of single compound (cpA neurons [3]): moderate inhibitor (40-60% reduction in neuronal activity as compared to baseline activity of the neuron)
C/C=C(\C)C=O [OLI0013, trans-2-methyl-2-butenal] | 0% | 0% | 72% lethal | 0% lethal | – | – | – | – | – | – | Class (cpA neurons [1]): Strong Activator (strong activators yield an increase in activity that is >60 spk/sec over baseline neuronal activity)
N#C/C=C/c1ccccc1 [OLI0020, cinnamyl nitrile] | 0% | 100% | 100% lethal | 100% lethal | – | 56% | – | – | – | – | Class (cpA neurons [1]): Moderate Activator (Moderate activators yield an increase in neuronal activity that is between 40 and 60 spk/sec over baseline neuronal activity); Comp B Class (cpA neurons [1]): Mod; Class B (activator class of the individual component) (cpA neurons [1]): Mod
CCCC1CCC(=O)O1 (stereo not shown) [OLI0024, gamma-heptalactone] | 0% | 0% | 100% lethal | 0% lethal | – | 71% | – | – | – | – | Class (cpA neurons [1]): Moderate Activator (Moderate activators yield an increase in neuronal activity that is between 40 and 60 spk/sec over baseline neuronal activity); Comp A Class (cpA neurons [1]): Mod; Comp B Class (cpA neurons [1]): Mod; Class B (activator class of the individual component) (cpA neurons [1]): Mod
CCc1ncc(C)nc1CC [OLI0067, 2,3-diethyl-5-methylpyrazine] | – | – | – | – | Strong Inhibitor (strong inhibitors (reducing activity >60%)) | 100% | 0% | 0% | 100% | 0% | –
CCc1nccnc1CC [OLI0068, 2,3-diethylpyrazine] | – | – | – | – | Strong Inhibitor (strong inhibitors (reducing activity >60%)) | 24% | 0% | 0% | 100% | 0% | Class (inhibitor class of the individual component) (cpA neurons [3]; [7]): Strng
CCc1nccnc1C [OLI0069, 2-ethyl-3-methylpyrazine] | – | – | – | – | Strong Inhibitor (strong inhibitors (reducing activity >60%)) | 10% | 0% | 0% | 100% | 0% | –
CCc1nccnc1OC [OLI0071, 2-ethyl-3-methoxypyrazine] | – | – | – | – | Moderate Inhibitor (moderate inhibitors (reducing activity by 40-60%)) | 29% | 0% | 0% | 100% | 0% | Class (inhibitor class of the individual component) (cpA neurons [3]; [6]): Mod; Class (inhibitor class of the individual component) (cpA neurons [3]; [7]): Mod; inhibitor class of single compound (cpA neurons [3]): moderate inhibitor (40-60% reduction in neuronal activity as compared to baseline activity of the neuron)
CCCCCC(=O)CC [OLI0075, octanone-3] | 0% | 0% | 100% lethal | 50% lethal | Moderate Inhibitor (moderate inhibitors (reducing activity by 40-60%)) | – | – | – | – | – | Class (inhibitor class of the individual component) (cpA neurons [3]; [6]): Mod
CCCCCCC/C=C/C=O [OLI0077, trans-2-decenal] | – | – | – | – | Moderate Inhibitor (moderate inhibitors (reducing activity by 40-60%)) | 72% | – | – | – | – | Class (inhibitor class of the individual component) (cpA neurons [3]; [6]): Mod
CCCCCCC(=O)OC [OLI0091, methyl heptanoate] | – | – | – | – | Mild Inhibitor (mild inhibitors (reducing activity by 20-40%)) | 20% | 0% | 0% | 72% | 0% | Comp A Class (cpA neurons [1]): Mild Inh (mild inhibitors (reducing activity by 20-40%))
CCCCCC(C)=O [OLI0092, methylamylketone] | – | – | – | – | Mild Inhibitor (mild inhibitors (reducing activity by 20-40%)) | 8% | 0% | 0% | 73% | 32% | Comp B Class (cpA neurons [1]): Mild Inh (mild inhibitors (reducing activity by 20-40%))
C=CCc1ccc(O)c(OC)c1 [OLI0102, Eugenol] | – | – | – | – | – | 100% | 0% | 100% | 100% | 25% | Class (inhibitor class of the individual component) (cpA neurons [3]; [6]): Mild; Class (inhibitor class of the individual component) (cpA neurons [3]; [7]): Mild; ability to repel bed bugs ([4]; 100 microliters solution on filter paper tent, 5 minutes): surprisingly strong ability to repel bed bugs
COC(/C=C/c1ccccc1)OC [OLI0106, cinnamic aldehyde dimethyl acetal] | 0% | 100% | 100% lethal | 10% lethal | – | 90% | – | – | – | – | –
CC1=C2CCC(C)CC2OC1=O (stereo not shown) [OLI0111, Menthalactone] | 0% | 100% | 100% lethal | 33% lethal | – | 13% | – | – | – | – | –
methoxy cinnamic aldehyde [OLI0112] | 0% | 100% | 100% lethal | 0% lethal | – | 23% | – | – | – | – | –
